These results are taken from paper PMC10641921, “Optimization of mTOR Inhibitors Using Property-Based Drug Design and Free–Wilson Analysis for Improved In Vivo Efficacy” (ACS Medicinal Chemistry Letters, 2023).

Series [1] has as its system pS6K-T389 in PC-3 cells (TORC1). As to the kind of experiment: Cellular pS6K-T389 assay in PC-3 cells (TORC1 activity). The series is classed as cell-based. To be noted: Homo sapiens, read-out: pS6K-T389 cell IC50. The source says: Our previously reported inhibitor 1 (Figure 1) was potent against mTOR and selective against the off-target PI3Kα.[10]−[12] The target product profile for 1 and the next-generation analogs described here was for a dual inhibitor against both TORC1 and TORC2. […] We undertook a campaign to identify analogs that had improved prospects for a lower efficacious dose while retaining the favorable selectivity and safety profile of compound 1.

For series [2], the system named is PI3Kα. The experiment in a line: PI3Kα enzyme selectivity (PI3Kα IC50 over mTOR IC50). Type of series: biochemical. To be noted: ratio of PI3Kα enzyme IC50 over mTOR enzyme IC50.
Series [3] is described as follows: Human liver microsome intrinsic clearance. Type of series: in vitro ADME.
For series [4], the target named is T1, CYP2C8 (Homo sapiens, UniProt P10632).
T1 sequence (P10632 1-490): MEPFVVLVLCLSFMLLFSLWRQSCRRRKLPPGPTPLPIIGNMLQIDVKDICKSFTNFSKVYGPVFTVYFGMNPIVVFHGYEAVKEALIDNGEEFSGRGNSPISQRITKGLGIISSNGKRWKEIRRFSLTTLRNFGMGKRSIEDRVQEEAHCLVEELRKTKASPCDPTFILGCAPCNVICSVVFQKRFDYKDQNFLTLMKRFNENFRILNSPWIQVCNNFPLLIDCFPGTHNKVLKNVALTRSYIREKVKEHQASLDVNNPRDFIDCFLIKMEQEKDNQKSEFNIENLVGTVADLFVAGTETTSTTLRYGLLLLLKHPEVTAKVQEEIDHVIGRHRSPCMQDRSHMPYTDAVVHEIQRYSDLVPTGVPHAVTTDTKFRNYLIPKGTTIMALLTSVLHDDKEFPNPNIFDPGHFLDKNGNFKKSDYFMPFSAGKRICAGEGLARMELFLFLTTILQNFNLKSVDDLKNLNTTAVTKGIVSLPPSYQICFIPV
The experiment in a line: CYP inhibition, 2C8. The series is classed as in vitro ADME. To be noted: most potently inhibited CYP isoform.

The nature of series [5]: Rat PK (iv and po). The series is classed as in vivo. As to conditions: for frac. abs.: estimated from %F, Cl and Qh = 70 mL min^–1 kg^–1; for bioavailability: in vivo, 4 mg/kg; for bioavailability / Cl / Vd: iv 1 mpk; for bioavailability / Cmax: po 4 mpk in 0.5% methylcellulose. An excerpt:
This was an early indication that the strategy of increasing potency while lowering lipophilicity would allow us to meet our goal of improving prospects for favorable PK and dose.

A short description of series [6]: Thermodynamic solubility. Type of series: physicochemical.
In series [7] the test system is A549 lung carcinoma cell line xenograft. As to the kind of experiment: Mouse xenograft model with A549 lung carcinoma cell line. Type of series: in vivo. How it is done: Based on the improved rat PK for 14c, it was dosed at 2 and 6 mpk along with lead 1 at 30 mpk—in an effort to achieve similar in vivo exposure profiles—in a mouse xenograft model with the lung carcinoma cell line A549 (Figure 4). […] The 6 mpk dose of 14c reduced the tumor volume by more than 50%. Regrowth was included to assess a possible growth lag period, but as expected, tumor regrowth resumed following mTOR inhibitor withdrawal.[22]
All animal studies were conducted in accordance with Takeda California Institutional Animal Care and Use Committee guidelines in a facility accredited by the American Association for Accreditation of Laboratory Animal Care. Female Nu/Nu mice (Balb/c), approximately 28 days of age and weighing 20 to 23 grams were obtained from Harlan Laboratories. Immuno-compromised and/or inbred mice are used extensively for in vivo cancer research for detecting pharmacological capabilities induced by anti-cancer agents and therefore were chosen as the most appropriate animal model for this study. Five million A549 cells/animal (0.2 mL) w/ Matrigel were implanted S.C. into the right flank of Balb/c Nu/Nu mice.
Low passage A549 cells were grown in F12 media and supplied at a concentration of 50 million cells/mL in DPBS. Treatment was initiated when all study animals had small tumors averaging approximately 150-180 mg. Dosing solutions/suspensions were prepared every 5 days. Compound 1 was suspended in 30% Captisol in 0.05 M MSA pH ~1.5. Compound 14c was suspended in 0.5% MC. Dose solutions/suspensions were given orally at a dose volume of 5 mL/kg. […] The general health of the mice was monitored, and mortality was assessed daily. Tumor dimensions were recorded 2 times per week starting one day before the first day of treatment. Toxicity was assessed as net body weight loss and lethality. Tumor weights are calculated using the equation (a x b2)/2, where a and b refer to the larger and smaller dimensions collected at each measurement. Error bars in each plot of % tumor volume change vs. days of treatment were calculated as the standard error of the means. […]

Where [8] appears, read: pH 1.2, read-out: Thermodynamic solubility at pH 1.2.
The mark [9] stands for this setting: pH 6.8, read-out: Thermodynamic solubility at pH 6.8.

Converted amounts (≈) assume the structure as drawn. Like-named read-outs stand apart in the source and are kept apart here.

A word on the IC50: it is the concentration that inhibits the measured activity by half. What is called bioavailability is the share of a dose that reaches the circulation, judged against a reference dose that is usually intravenous. Read a high bioavailability as good availability. By Cmax is commonly meant the highest concentration seen after dosing. For orientation: solubility (thermodynamic) means the concentration in solution at equilibrium with solid. With `CC(F)(F)CN1C(=O)[C@]2(C)COCCN2c2nc(-c3ccc(NC(=O)NC4CC4)cc3)ncc21` [compound 1], in series [1], the IC50 is 0.049 µM. Moreover, the “PI3Kα Sel” value in series [2] came to 54 x. Also, in series [3] (human, liver microsomes, Figure 1 profile, read-out: HLM Clint), the CLint scaled was 0.6 L/h/kg. Moreover, the IC50 in series [4] turned out to be 7 µM. In series [5], the frac. abs. is 22%, the bioavailability was found to be 20%, the Cl amounted to 6.9 mL min^–1 kg^–1 and the Vd came to 0.95 L/kg. Further, the Cmax in series [5] amounted to 0.32 µM. For the same compound, in series [6] (setting [8]), the thermodynamic solubility came out at 340 µM (≈ 161 µg/mL). The thermodynamic solubility in series [6] (setting [9]) was 0.6 µM (≈ 0.283 µg/mL). The Tumor growth entry in series [7] (30 mpk po QD 14 days) is on record as “fully inhibited tumor growth”.
For `C[C@@]12COCCN1c1nc(-c3cccc4[nH]ccc34)ncc1N([C@H]1CC[C@H](O)CC1)C2=O` [14c], in series [1], the IC50 turned out to be 0.006 µM. Also, the PI3Ka sel. in series [2] is 240 ×. Besides, the “PI3Kα Sel” value in series [2] (Table 2, unit not given) was 240. The “HLM Clint” value in series [3] (apparent intrinsic clearance, scaled) turned out to be 6 mL min^–1 kg^–1. The IC50 in series [4] turned out to be 21 µM. For the same compound, in series [5], the frac. abs. is 100%, the bioavailability worked out at 94%, the Cl was 7.0 mL min^–1 kg^–1 and the Vd stood at 1.3 L/kg. This compound also returned a Cmax in series [5] of 1.6 µM. In addition, the thermodynamic solubility in series [6] (setting [8]) was 3960 µM (≈ 1720 µg/mL). For the same compound, the solubility (thermodynamic) in series [6] (setting [9]) was 6 µM (≈ 2.6 µg/mL). In series [7] (2 mpk po QD 14 days), the Tumor growth result is recorded as “fully inhibited tumor growth”. Further, in series [7] (6 mpk po QD 14 days), the Tumor volume reduction result is “more than 50%”.
